The structures appear in SMILES notation.

We go through two compounds from patent publication US11447495B2, “Substituted benzo[f]imidazo[1,5-a][1,4]diazepines as GABA(a) receptor modulators” (priority 2016, dated 2022).

In one assay the test system is lung cells. Nature of the assay: Lung cell proliferation by EdU incorporation. In kind it is in vivo. As to conditions: Ova s/c mice, treated versus non-treated. As for the experimental part: ASM hyperplasia was determined by incooperation of EdU into the DNA of newly formed cells. Herein, at the end of the ovalbumin sensitization and challenge protocol, mice received a single i.p. injection of EdU (Invitrogen, Carlsbad, Calif.) at a dose of 100 mg/kg. Mice were euthanized 4 hours after injection and the lungs formalin fixed, harvested and paraffin embedded. 6 μm sections of formalin fixed and paraffin embedded lung sections were mounted onto Fisher Superfrost Plus Slides. EdU staining was conducted using Click-iT™ EdU imaging kit (Invitrogen, Carlsbad, Calif.) according to manufacturer's instructions. Briefly lungs were deparaffinized in histoclear and rehydrated in graded ethanol. Tissue sections were washed twice with 3% bovine serum albumin (BSA) in PBS and permeablized with 0.5% Triton X-100 in PBS for 20 minutes. The sections were again washed twice with 3% BSA in PBS and then incubated with a Click-iT™ reaction cocktail containing Click-iT™ reaction buffer, CuSO4, Alexa Fluor® 488 Azide, and reaction buffer additive for 30 minutes in the dark. […] Lung sections of non-treated and GL-II-93 treated Ova s/c mice were analyzed for the incooperation of EdU, a thymidine analog that can be visualized after click chemistry with a fluorescent azide. For the negative control EdU was not injected resulting in no visible fluorescence. […]

The test system of assay [1] is GABAA receptor subtypes α1β3γ2, α2β3γ2, α3β3γ2, α4β3γ2 and α5β3γ2. The assay can be described thus: Two-electrode voltage clamp, modulation of GABA (EC3-5) elicited currents in Xenopus oocytes. In kind it is cell-based. From the text:
Compounds having selective activity bias for α4 and α5-GABAAR can be identified. Patch clamp assays are used to quantify chloride flux induced inward currents resulting from agonism of GABAAR containing single α-subunits. […] For electrophysiological experiments with Xenopus oocytes (Ramerstorfer et al. European journal of pharmacology 2010, 636, 8-27) mature female Xenopus laevis (Nasco, Fort Atkinson, Wis., USA) were anaesthetized in a bath of ice-cold 0.17% Tricain (Ethyl-m-aminobenzoate) before decapitation and transfer of the frog's ovary to ND96 medium (96 mM NaCl, 2 mM KCl, 1 mM MgCl2, 5 mM HEPES; pH 7.5). Following incubation in 1 mg/ml collagenase (Sigma-Aldrich, St. Louis, Mo., USA) for 30 minutes, stage 5 to 6 oocytes were singled out of the ovary and defolliculated using a platinum wire loop. […] Maximum currents measured in mRNA injected oocytes were in the microampere range for all receptor subtypes. […] Data were digitized using a Digidata 1322A or 1550 data acquisition system (Axon Instruments, Union City, Calif., USA), recorded using Clampex 10.5 software (Molecular Devices, Sunnyvale, Calif., USA), and analyzed using Clampfit 10.5 and GraphPad Prism 6.0 (La Jolla, Calif., USA) software. […]
A general note: Two-electrode voltage clamp is typically applied to oocytes expressing channels or transporters.

Regarding `C[C@H]1N=C(c2ccccc2F)c2cc(Br)ccc2-n2cnc(C(=O)O)c21` [GL-II-93, (R)-8-bromo-6-(2-fluorophenyl)-4-methyl-4H-benzo[f]imidazo[1,5-a][1,4]diazepine-3-carboxylic acid], in the assay on lung cells, the “proliferation of lung cells (EdU)” value is “Non-treated Ova S/C mice showed a high proliferation rate in comparison to GL-II-93 treated animals”.
`C#Cc1ccc2c(c1)C(c1ccccc1F)=N[C@H](C)c1c(C(=O)O)ncn1-2` [SH-053-2′F-R-CH3-Acid, (R)-8-ethynyl-6-(2-fluorophenyl)-4-methyl-4H-benzo[f]imidazo[1,5-a][1,4]diazepine-3-carboxylic acid]: the “GABAA receptor subtype selectivity, modulation of GABA elicited currents” value in assay [1] is given as “positive α5β3γ2-selective GABAA receptor modulator”.
